The nature of the series: gradient 5% acetonitrile 3 min, to 50% in 2 min, to 85% in 15 min, held 3 min, 100 µL/min. To be noted: column: Zorbax Extend-C18 2.1 x 50 mm; eluents: water / acetonitrile, 0.1% formic acid. An outline of the steps: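 Mixtures of ~100 pure standards were chromatographed on a Zorbax Extend-C18 column (2.1 × 50 mm, 1.8 μm) at 100 μL/min using water and acetonitrile, each with 0.1% formic acid. Detection used a quadrupole time-of-flight mass spectrometer in positive and negative ionization mode, and data collection spanned 3 months. Retention time was obtained from adduct peaks picked computationally and each checked manually.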
On to `CCN1c2cc(Cl)ccc2C(=O)NC12CCN(C(=O)NCCc1ccccc1)CC2`, for which the RP-LC retention time amounted to 863 s.
Next, `CN1C(=O)CCCCC1C(=O)N1CCc2ccccc21` (stereo not given): 721 s; `Cc1cc2c(c(=O)n(-c3ccc(F)cc3)c(=O)n2CC(=O)Nc2cc(F)ccc2F)n1C`: 875 s.
The compound `CC1Oc2ccccc2N(Cc2nc(-c3ccc(Br)cc3)no2)C1=O` (stereo not given) yielded an RP-LC retention time of 1180 s.
Take `CS(=O)(=O)N1CCC(CNC(=O)c2cc(-c3ccccc3)on2)CC1`: the RP-LC retention time is 750 s.
In the case of `O=c1n(Cc2ccccc2F)nc2c(S(=O)(=O)N3CCOCC3)cccn12`, the RP-LC retention time turned out to be 745 s.
To `O=C(NCCC1=CCCCC1)c1nnc(-c2ccc(S(=O)(=O)N3CCCC3)cc2)o1` belongs 1050 s; to `Cn1c(N2CCC(C(=O)N3CCN(c4ccc(Cl)cc4)CC3)CC2)cc(=O)n(C)c1=O`, 721 s; to `COc1ncccc1CNC(=O)c1nn(C)c2ccccc12`, 798 s.
Next, `O=C(Nc1cccn2nc(C3CCC3)nc12)c1ccc(C(F)(F)F)s1`: 1120 s.
To `CCc1ccc(NC(=O)C2CCN(c3cncnc3N3CCOCC3)CC2)cc1` belongs 675 s; to `COc1ccc(NC(=O)Cn2c(N3CCCCC3)nc(C)cc2=O)cc1`, 661 s.
On to `COc1cccc(-c2noc(C3CCCN3C(=O)NCc3ccco3)n2)c1` (stereo not given), for which the RP-LC retention time turned out to be 615 s.
Compound `C=Cc1ccc(Cn2nc3c(S(=O)(=O)N4CCc5ccccc5C4)cccn3c2=O)cc1` returned an RP-LC retention time of 1050 s.
Consider `CC1=C(c2ccccc2)S(=O)(=O)N=C1N1CCCN(C(=O)c2ccc(C)s2)CC1`, for which the RP-LC retention time was found to be 821 s.
To `CCc1nnc2cc(N3CCN(Cc4ccc(C(C)C)cc4)CC3)cnn12` belongs 608 s; to `O=C(c1cc(=O)n2c(nc3ccccc32)s1)N1CCN(c2ccccn2)CC1`, 634 s.
In turn, `O=C(C1CCCO1)N1N=C(c2ccc(Br)cc2)CC1c1ccco1` (stereo not given) displayed an RP-LC retention time of 892 s.
Regarding `Cc1nc(Nc2ccc(NC(=O)COc3ccc(Cl)cc3)cc2)cc(-n2ccnc2)n1`, the RP-LC retention time amounted to 646 s.
Next, `CN(CC(=O)N1CCOCC1)c1nc(C2CC2)nc2c1CCC2`: 560 s; `Cc1cccn2c(=O)cc(OCC(=O)Nc3ccc(SC(F)F)cc3)nc12`: 771 s.
Next, `Cc1cc(NC(=O)NCC(=O)N2CCc3ccccc32)ccc1Br`: 959 s; `NC(=O)c1cc(-c2ccc(F)cc2)n[nH]1`: 645 s; `O=c1c2cnn(-c3ccc(F)cc3)c2ncn1Cc1nc(-c2ccccc2)no1`: 1010 s.
Compound `Cc1occc1-c1nnc(SCC(=O)N2CCCc3ccccc32)o1` displayed an RP-LC retention time of 962 s.
With `O=C(Cc1cccs1)N1CCCN(c2cc(-c3ccc4c(c3)OCO4)[nH]n2)CC1`, the RP-LC retention time turned out to be 671 s.
Next, `O=C(NCc1ccc(F)cc1)C1CCCN(c2nnc3ccc(Cl)cn23)C1` (stereo not given): 749 s; `COc1ccc(-c2cc(N3CCC(NC(=O)c4ccc(C#N)cc4)C3)n[nH]2)cc1` (stereo not given): 685 s.
To `CC(C)NC(=O)c1ccc(OCC2CCN(C(=O)c3cc(F)ccc3F)CC2)cc1` belongs 850 s; to `Cn1nc(C(=O)N2CCCC(C(=O)Nc3ccccc3)C2)c2c1CCN(C(=O)c1ccc(F)cc1)C2` (stereo not given), 756 s; to `CC(=O)c1ccc(NC(=O)C2Oc3ccccc3NC2=O)cc1` (stereo not given), 683 s.
Consider `COc1ccc2c(c1)c(CN1CCOCCNC(=O)CC1)cn2C(C)C`, for which the RP-LC retention time is 642 s.
Regarding `COc1ccc(-c2nc(C)cc(C)c2CNS(=O)(=O)c2cccc(OC)c2)cc1`, the RP-LC retention time was determined as 656 s.
To `CCC(C)NC(=O)c1n[nH]c2c1CCCC2` (stereo not given) belongs 718 s; to `CCc1cccc2c1[nH]c1cc(NC(=O)CCc3c(C)[nH]c(=O)[nH]c3=O)ccc12`, 677 s.
Turning to `Fc1ccc(-c2nc(-c3ccc(-n4cccn4)nc3)no2)cc1F`, the RP-LC retention time was determined as 1070 s.
To `Cc1nc2ccn(Cc3cccnc3)c(=O)c2cc1C(=O)NCCC1=CCCCC1` belongs 648 s; to `COCC(=O)N1CCCN(C2=NS(=O)(=O)C(c3ccc(F)cc3)=C2C)CC1`, 677 s; to `O=C(c1cccc(Br)c1)N1CCN(CCn2cccn2)CC1`, 554 s.
To `COc1ccccc1N1CCN(c2cc(SCC(=O)NCc3ccc(Cl)cc3)ncn2)CC1` belongs 1110 s.
Next, `Cc1oc(CNC(=O)Nc2ccc(Cl)cc2F)nc1C(=O)N1CCCC1`: 723 s; `COc1ccc(Cn2nc3ccc(S(=O)(=O)N4CCCCC4)cn3c2=O)cc1`: 900 s; `CCOc1ccc(S(=O)(=O)N2C[C@@H]3C[C@H](NC(=O)c4ccccc4)[C@H]2C3)cc1`: 900 s.
`COc1ccc(N2CCN(c3cc(SCC(=O)Nc4ccc(OC)c(OC)c4)ncn3)CC2)cc1` returned an RP-LC retention time of 791 s.
To `Cc1sc(C)c(S(=O)(=O)Nc2ccc(Cl)cc2)c1-c1cc(C(F)(F)F)on1` belongs 1210 s; to `COc1ccc(S(=O)(=O)N2CCCC(C(=O)Nc3cc(Cl)ccc3OC)C2)cc1Cl` (stereo not given), 1110 s.
To `CC(=O)N1CCc2nn(CC(=O)Nc3cccc(Br)c3)c(=O)cc2C1` belongs 666 s; to `CCCn1cc(C(=O)Nc2ccc3c(c2)OCCO3)c2cccnc21`, 833 s.
`Cc1ccc(C)c(NS(=O)(=O)c2c(C)sc(C)c2-c2n[nH]c(C)c2C)c1` gave an RP-LC retention time of 1140 s.
To `COCCn1nc(N2CCCC(NS(=O)(=O)c3c(C)nn(C)c3C)C2)ccc1=O` (stereo not given) belongs 622 s.
In turn, `O=C(NCCc1ccccc1)C(=O)NCC(c1ccc2c(c1)OCO2)N1CCOCC1` (stereo not given) displayed an RP-LC retention time of 672 s.
Compound `CN1C(=O)c2cc(C(=O)NCCc3ccccc3)nn2CC1(C)C(=O)NC1CCCC1` (stereo not given) yielded an RP-LC retention time of 761 s.
To `Cc1ccc(-c2ncccc2CNS(=O)(=O)c2ccc(Br)s2)cc1` belongs 786 s.
Next, `CC(C)c1nccn1C1CN(C(=O)CCCc2c[nH]c3ccccc23)C1`: 631 s; `Cc1noc(C2(NC(=O)C3COc4ccccc4O3)CCCCC2)n1` (stereo not given): 920 s; `Cc1ccc(Cn2c(C(=O)NCCc3ccccc3)cc3sccc32)cc1`: 1180 s.
To `O=C(Cn1cccc(-c2nc(-c3ccc(Cl)cc3)no2)c1=O)N1CCCCC1` belongs 855 s.
`CN1CCC2(CCN3CCc4c(oc5ccccc45)C3C2)N(C)C1=O` (stereo not given) had an RP-LC retention time of 615 s.
Regarding `Cc1cccc(CNC(=O)Cn2c(=O)c3nnc(C)n3c3ncccc32)c1`, the RP-LC retention time was 685 s.
`Cc1c(C(=O)C(=O)N2CCc3ccccc32)c2ccccc2n1C` had an RP-LC retention time of 902 s.
